Reference: ChEMBL document CHEMBL1201862, “PubChem BioAssay data set” (2004)
The source made the active and inactive calls.

Columns and labels:
[1] = target: T1, G-protein coupled receptor 35 (Homo sapiens, UniProt Q9HC97); test: SAR Analysis for the identification of Selective Antagonists of ERK1/2 Activity in GPR35-Overexpressing U2OS Cells - Set 2. [Related pubchem assays (depositor defined):AID2058, AID2079]; assay type: functional, cell-based
[2] = target: T1, G-protein coupled receptor 35; test: SAR analysis of Antagonists of the GPR35 Receptor using an Image-Based Assay - Set 5. [Related pubchem assays (depositor defined):AID2058, AID2079]; assay type: functional
[3] = target: G-protein coupled receptor 55 (Homo sapiens, UniProt Q9Y2T6); test: SAR Analysis of Selective Antagonists of GPR55 using an Image-Based Assay - Set 3. [Related pubchem assays (depositor defined):AID2058, AID2079]; assay type: functional
Vero [4] = test: inhibition of WNV-induced cytopathic effect – cell-based, CPE readout (AID 1621); assay type: functional; settings: Chlorocebus sabaeus
[5] = A Cell Based Assay for the Identification of Probe candidate Compounds with Anti- Venezuelan Equine Encephalitis virus. [Related pubchem assays: 2409, 2419, 1621, 2238, 2405, 2024, 2065, 2402, 2414, 1635, 1650, 2244 ]; assay type: functional
Vero [6] = test: host cell viability loss, Vero E6 – synthesized analogs, cytotoxicity control for West Nile virus antiviral project, SAR follow-up (AID 2244); assay type: functional; settings: Chlorocebus sabaeus
Vero [7] = test: Vero cell viability after compound exposure – synthesized analogs, set II, cytotoxicity control for West Nile virus antiviral project, SAR follow-up (AID 2402); assay type: functional; settings: Chlorocebus sabaeus
Vero [8] = test: antiviral activity against WNV, CPE read-out – cell-based (AID 2419); assay type: functional; settings: Chlorocebus sabaeus
Vero [9] = test: antiviral protection of cells from WNV – synthesized analogs, SAR follow-up (AID 2238); assay type: functional, cell-based; settings: Chlorocebus sabaeus
Vero [10] = test: Vero 76 cell viability after compound exposure – Vero 76 cells, synthesized analogs, cytotoxicity control for West Nile virus antiviral project, SAR follow-up (AID 2414); assay type: functional; settings: Chlorocebus sabaeus
INS1 = test: INS-1E survival protection against cytokine death – cell-based, luminescence, retest, dose response (AID 449756); assay type: functional; settings: Rattus norvegicus;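 also: cell death triggered by IL-1 beta plus TNF-alpha plus IFN-gamma mixture; protective hits raise ATP signal compared with cytokine alone wells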
[11] = target: T2, Kappa-type opioid receptor (Homo sapiens, UniProt P41145); assay type: functional
CHO = CHO cell viability loss, potency – luminescence, cytotoxicity control for TLR9-MyD88 binding inhibitor project, dose response (AID 588339); assay type: functional, cell-based, hamster; settings: Cricetulus griseus;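 also: CHO cells stably coexpressing TLR9 and MyD88 fusions from primary screen; compound exposure lasted 48 hours before viability readout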
[12] = Fluorescence-based cell-based high throughput dose response assay for inhibitors of the interaction of nucleotide-binding oligomerization domain containing 2 (NOD2) and the receptor-interacting serine-threonine kinase 2 (RIPK2).; assay type: functional; settings: Homo sapiens
Beta-galactosidase = Beta-galactosidase (Escherichia coli, UniProt Q8VNN2); assay type: functional
Beta Lactamase = Beta Lactamase (Pseudomonas aeruginosa, UniProt Q932Y6); test: BLA reporter interference, concentration series – BLA reporter cells, FRET fluorescence, artefact control for TLR9-MyD88 binding inhibitor project, dose response (AID 588341); assay type: cell-based;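 also: cell based assay in CHO-K1 cells stably expressing beta-lactamase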
Aminopeptidase N = target: T3, Aminopeptidase N (Plasmodium falciparum FcB1/Columbia, UniProt O96935); test: malaria alanyl aminopeptidase activity blockers – biochemical, fluorogenic H-Leu-NHMec substrate, 1536-well (AID 1445); parameters: species or system Plasmodium falciparum 3D7, 3D7
T3 sequence (O96935 whole entry): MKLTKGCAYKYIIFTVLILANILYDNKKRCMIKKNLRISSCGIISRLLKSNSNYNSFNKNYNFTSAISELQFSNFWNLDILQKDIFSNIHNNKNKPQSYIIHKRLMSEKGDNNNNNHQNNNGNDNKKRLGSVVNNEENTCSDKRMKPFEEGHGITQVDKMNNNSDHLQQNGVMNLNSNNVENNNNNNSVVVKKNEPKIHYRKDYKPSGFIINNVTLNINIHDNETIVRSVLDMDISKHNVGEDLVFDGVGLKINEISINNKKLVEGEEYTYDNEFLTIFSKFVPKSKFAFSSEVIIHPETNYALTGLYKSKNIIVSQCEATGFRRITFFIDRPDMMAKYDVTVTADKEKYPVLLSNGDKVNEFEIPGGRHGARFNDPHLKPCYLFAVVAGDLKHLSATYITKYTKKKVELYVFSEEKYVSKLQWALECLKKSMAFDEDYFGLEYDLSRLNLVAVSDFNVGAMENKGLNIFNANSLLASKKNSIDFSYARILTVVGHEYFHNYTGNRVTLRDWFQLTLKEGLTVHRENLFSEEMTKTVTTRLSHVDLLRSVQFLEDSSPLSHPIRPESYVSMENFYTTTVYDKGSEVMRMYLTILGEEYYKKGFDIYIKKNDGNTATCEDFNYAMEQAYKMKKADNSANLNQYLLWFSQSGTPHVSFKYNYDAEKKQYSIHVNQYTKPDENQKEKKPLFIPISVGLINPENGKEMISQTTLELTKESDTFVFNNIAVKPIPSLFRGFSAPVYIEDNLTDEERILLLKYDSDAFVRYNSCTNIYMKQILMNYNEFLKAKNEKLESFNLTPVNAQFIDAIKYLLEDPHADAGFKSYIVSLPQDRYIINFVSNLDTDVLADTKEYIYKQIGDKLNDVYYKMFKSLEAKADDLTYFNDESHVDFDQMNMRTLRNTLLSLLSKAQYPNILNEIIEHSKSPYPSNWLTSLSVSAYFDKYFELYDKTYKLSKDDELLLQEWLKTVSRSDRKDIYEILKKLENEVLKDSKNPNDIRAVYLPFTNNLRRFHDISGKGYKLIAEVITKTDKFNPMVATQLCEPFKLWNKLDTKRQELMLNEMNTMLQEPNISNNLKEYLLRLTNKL

[13] = target: T2, Kappa-type opioid receptor; assay type: functional; remark: listed apart in the source
[14] = target: Dual specificity tyrosine-phosphorylation-regulated kinase 1A (Rattus norvegicus, UniProt Q63470); assay type: biochemical, Homo sapiens

T1 sequence (Q9HC97 whole entry): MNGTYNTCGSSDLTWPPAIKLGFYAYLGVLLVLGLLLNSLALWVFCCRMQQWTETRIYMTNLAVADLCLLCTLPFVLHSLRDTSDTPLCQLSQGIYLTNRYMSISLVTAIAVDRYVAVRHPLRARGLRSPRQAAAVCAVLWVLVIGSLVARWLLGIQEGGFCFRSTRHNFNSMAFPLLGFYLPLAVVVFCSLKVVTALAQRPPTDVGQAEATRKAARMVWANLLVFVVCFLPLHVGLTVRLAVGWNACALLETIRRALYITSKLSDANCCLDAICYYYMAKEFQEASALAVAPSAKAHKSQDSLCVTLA
T2 sequence (P41145 whole entry, the tested form may be a part): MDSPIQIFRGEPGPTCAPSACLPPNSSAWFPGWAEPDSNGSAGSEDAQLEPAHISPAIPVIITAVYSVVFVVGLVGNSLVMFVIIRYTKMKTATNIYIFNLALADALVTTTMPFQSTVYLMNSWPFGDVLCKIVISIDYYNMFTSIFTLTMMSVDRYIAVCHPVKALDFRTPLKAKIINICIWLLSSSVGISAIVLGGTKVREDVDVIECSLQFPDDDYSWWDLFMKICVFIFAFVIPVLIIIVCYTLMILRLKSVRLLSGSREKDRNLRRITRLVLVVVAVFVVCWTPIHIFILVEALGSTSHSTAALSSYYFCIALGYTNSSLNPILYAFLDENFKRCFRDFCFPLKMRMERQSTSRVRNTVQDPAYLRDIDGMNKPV
Sequence of Beta Lactamase (Q932Y6 whole entry): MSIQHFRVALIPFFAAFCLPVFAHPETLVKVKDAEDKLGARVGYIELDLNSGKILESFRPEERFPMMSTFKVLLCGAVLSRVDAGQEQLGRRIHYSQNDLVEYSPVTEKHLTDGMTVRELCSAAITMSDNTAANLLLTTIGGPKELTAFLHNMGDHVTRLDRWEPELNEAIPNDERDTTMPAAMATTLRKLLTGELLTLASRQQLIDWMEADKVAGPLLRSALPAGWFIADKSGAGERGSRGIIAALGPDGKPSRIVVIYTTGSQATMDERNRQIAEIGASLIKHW
Sequence of Beta-galactosidase (Q8VNN2 whole entry): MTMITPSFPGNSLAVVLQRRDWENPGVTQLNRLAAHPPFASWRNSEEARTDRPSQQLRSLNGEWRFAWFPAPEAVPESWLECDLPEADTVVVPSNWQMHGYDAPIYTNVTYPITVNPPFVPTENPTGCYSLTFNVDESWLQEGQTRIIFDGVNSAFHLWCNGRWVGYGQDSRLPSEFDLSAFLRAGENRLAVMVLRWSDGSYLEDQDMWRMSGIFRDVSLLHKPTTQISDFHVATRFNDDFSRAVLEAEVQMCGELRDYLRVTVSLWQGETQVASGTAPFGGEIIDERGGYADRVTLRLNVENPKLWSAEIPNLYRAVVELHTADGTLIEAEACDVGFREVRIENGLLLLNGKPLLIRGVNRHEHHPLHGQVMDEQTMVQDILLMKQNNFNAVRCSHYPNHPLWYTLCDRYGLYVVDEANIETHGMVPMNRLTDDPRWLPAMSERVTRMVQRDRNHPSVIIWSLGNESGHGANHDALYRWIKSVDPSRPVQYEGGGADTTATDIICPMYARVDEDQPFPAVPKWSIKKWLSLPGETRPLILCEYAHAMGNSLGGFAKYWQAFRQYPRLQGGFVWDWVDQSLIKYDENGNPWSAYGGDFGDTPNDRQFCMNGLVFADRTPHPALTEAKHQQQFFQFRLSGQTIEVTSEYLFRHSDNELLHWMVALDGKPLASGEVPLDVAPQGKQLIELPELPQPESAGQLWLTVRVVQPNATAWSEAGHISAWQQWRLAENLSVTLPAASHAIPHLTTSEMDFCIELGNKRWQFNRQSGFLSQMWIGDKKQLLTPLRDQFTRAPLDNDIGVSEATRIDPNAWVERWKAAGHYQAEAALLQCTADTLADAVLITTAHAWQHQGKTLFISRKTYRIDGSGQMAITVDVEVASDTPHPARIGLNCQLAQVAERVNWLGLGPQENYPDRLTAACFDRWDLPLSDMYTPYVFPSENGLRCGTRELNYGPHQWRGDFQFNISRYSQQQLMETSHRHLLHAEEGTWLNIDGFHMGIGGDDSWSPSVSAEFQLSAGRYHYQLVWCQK
Sequence of G-protein coupled receptor 55 (Q9Y2T6 whole entry): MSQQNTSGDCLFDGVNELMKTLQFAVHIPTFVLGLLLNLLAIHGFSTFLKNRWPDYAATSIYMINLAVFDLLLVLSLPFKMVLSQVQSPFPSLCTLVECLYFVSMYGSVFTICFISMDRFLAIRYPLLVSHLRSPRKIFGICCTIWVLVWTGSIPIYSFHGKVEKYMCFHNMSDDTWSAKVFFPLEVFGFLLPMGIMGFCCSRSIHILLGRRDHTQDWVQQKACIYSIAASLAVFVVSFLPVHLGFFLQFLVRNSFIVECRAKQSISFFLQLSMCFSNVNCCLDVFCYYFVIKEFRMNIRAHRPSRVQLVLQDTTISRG

CNC(=S)N/N=C/c1c(C(=O)OC)cnn1-c1ccc(Cl)cc1
active: IC50 [1] 4.11 µM | IC50 [2] 1.25 µM
inactive: IC50 [3] > 32 µM

CN(C)CCCN1c2ccc([N+](=O)[O-])cc2CCc2cc([N+](=O)[O-])ccc21
active: IC50 (Vero [4]) 10.8 µM | IC50 [5] 8.59 µM | CC50 (Vero [6]) 21.6 µM | CC50 (Vero [7]) 15.4 µM | IC50 (Vero [8]) 11.4 µM | IC50 (Vero [9]) 13.9 µM | CC50 (Vero [10]) 18.5 µM

N#CC(C#N)=C1C=CC=CN1/C(=C\c1ccco1)C(=O)c1ccccc1
inactive: EC50 (Beta-galactosidase) > 31.5 µM | IC50 (Beta Lactamase) 15.9 µM
18.9 µM: IC50 [11]
active: AC50 (INS1) 7.4 µM | IC50 (CHO) 1.64 µM | IC50 [12] 1.02 µM | IC50 (Aminopeptidase N) 65.2 µM | IC50 [13] 4.86 µM | AC50 [14] 5.46 µM
